Assay results: US12662479B2 (Foghorn Therapeutics Inc., priority 2020, dated 2026)
Counter-ions that a name gives are not always drawn.

Tests used:
HiBit-BRM fusion protein = target: T1, HiBit-BRM fusion protein (Homo sapiens, UniProt P51531); assay: HiBiT-BRM cell-based degradation assay (Nano-Glo HiBiT Lytic Detection, 24 h); conditions: HeLa cells expressing HiBiT-BRM; for DC50: read-out: BRM HiBit Degradation IC50; for BRM HiBit Degradation Maximum measured: top dose 30 μM
T1 construct: expressed in transfected cells
T1 sequence (P51531 whole entry, the tested form may be a part): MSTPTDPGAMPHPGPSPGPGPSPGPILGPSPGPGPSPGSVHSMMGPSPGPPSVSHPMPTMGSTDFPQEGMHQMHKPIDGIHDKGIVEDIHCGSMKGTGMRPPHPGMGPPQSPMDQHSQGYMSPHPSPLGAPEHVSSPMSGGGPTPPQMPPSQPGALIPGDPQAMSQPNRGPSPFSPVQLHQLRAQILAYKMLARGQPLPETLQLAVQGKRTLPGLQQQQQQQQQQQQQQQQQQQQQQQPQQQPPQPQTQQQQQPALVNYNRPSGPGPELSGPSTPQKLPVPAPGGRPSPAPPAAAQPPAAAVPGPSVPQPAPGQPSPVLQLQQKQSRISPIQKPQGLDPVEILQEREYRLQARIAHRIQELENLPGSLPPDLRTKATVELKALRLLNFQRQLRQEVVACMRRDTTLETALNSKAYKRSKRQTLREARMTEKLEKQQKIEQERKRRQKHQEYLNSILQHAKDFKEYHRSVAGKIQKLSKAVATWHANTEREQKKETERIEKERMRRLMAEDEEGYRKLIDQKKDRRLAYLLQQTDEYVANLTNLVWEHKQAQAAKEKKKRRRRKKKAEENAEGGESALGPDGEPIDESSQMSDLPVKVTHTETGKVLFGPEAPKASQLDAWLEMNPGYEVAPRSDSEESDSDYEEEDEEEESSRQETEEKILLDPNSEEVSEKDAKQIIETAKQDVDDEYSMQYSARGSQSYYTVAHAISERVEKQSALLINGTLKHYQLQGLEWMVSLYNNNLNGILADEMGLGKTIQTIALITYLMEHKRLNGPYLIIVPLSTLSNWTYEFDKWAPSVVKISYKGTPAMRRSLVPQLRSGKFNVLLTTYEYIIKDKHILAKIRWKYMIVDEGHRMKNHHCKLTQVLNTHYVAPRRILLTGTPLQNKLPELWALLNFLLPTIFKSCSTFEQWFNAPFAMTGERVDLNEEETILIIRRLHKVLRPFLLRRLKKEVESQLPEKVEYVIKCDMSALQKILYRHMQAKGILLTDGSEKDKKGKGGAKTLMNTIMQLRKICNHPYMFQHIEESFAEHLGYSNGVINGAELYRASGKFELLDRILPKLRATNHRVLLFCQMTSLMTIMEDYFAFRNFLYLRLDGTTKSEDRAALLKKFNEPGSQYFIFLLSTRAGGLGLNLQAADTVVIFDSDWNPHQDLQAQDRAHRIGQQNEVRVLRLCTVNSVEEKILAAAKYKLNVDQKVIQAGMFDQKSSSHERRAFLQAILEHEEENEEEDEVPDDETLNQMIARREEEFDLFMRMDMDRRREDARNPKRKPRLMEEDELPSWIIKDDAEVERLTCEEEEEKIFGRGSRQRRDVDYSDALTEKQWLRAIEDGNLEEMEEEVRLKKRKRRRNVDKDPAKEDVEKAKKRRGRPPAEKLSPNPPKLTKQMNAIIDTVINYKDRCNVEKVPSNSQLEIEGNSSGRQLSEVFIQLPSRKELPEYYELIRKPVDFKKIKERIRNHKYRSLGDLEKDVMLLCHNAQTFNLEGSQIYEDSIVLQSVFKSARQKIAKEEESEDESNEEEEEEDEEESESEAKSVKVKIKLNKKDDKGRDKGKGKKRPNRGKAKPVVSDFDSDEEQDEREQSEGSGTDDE
Outline: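 Percent BRM loss was derived from HiBiT luminescence relative to DMSO-treated cells and cells given 2 μM of a known BRM/BRG1 degrader. Treatment lasted 24 h in HiBiT-BRM HeLa cells, with a top final concentration of 30 μM.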

[1] = target: T2, HiBit-BRG1 fusion protein (Homo sapiens, UniProt P51532); assay: HiBiT-BRG1 cell-based degradation assay (Nano-Glo HiBiT Lytic Detection, 24 h); conditions: HeLa cells expressing HiBit-BRG1 and LgBit; for DC50: read-out: BRG1 HiBit Degradation IC50; for Dmax: HeLa, top dose 30 μM, read-out: BRG1 HiBit Degradation Maximum measured
T2 construct: expressed in transfected cells
T2 sequence (P51532 whole entry, the tested form may be a part): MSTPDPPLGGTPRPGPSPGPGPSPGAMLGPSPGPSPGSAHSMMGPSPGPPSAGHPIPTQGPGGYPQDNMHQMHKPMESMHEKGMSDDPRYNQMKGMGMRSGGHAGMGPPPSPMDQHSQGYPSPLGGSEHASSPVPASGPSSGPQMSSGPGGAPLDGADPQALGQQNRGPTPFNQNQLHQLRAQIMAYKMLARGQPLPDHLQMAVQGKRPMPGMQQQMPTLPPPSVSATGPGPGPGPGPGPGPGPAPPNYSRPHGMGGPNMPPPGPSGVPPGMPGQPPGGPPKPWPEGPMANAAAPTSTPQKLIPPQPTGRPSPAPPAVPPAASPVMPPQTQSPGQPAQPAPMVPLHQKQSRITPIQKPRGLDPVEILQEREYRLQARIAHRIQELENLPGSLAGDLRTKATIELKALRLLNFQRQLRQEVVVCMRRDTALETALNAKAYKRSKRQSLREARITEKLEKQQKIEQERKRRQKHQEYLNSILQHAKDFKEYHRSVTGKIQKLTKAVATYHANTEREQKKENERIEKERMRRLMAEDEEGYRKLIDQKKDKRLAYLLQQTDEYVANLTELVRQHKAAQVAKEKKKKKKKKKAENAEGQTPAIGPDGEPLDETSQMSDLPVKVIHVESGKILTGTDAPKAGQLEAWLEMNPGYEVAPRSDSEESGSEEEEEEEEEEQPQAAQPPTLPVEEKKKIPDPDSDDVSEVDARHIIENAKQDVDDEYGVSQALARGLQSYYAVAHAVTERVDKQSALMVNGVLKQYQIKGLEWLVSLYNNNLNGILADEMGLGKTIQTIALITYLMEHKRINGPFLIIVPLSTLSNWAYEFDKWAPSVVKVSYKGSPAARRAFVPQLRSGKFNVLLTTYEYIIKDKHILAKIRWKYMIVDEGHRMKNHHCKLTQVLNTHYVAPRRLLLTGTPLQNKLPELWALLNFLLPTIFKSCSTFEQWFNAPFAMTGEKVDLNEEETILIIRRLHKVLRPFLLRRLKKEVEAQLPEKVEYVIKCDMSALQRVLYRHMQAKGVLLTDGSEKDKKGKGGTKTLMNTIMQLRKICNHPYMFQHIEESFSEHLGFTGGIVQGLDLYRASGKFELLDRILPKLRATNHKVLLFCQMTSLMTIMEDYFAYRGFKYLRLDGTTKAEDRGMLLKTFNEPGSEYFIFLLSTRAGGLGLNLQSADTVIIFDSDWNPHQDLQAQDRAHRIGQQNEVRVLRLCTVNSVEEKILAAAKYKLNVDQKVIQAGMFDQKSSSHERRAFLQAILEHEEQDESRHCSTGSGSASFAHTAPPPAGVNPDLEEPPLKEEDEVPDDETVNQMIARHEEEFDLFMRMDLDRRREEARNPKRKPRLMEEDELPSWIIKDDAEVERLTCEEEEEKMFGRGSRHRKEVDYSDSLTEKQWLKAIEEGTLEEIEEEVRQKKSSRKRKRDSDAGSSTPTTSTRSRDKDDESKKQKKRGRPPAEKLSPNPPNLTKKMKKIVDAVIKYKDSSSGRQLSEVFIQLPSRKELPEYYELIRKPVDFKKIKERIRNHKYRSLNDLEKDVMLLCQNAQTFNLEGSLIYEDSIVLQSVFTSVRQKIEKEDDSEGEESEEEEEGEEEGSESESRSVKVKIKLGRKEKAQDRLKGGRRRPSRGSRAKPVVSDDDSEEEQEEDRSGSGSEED
Outline: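 Degradation is scaled from DMSO-treated cells (0%) to cells given 2 μM of a known BRM/BRG1 degrader (100%). HeLa cells stably carrying HiBiT-BRG1 plus LgBiT (5000/well) were lysed with Nano-Glo HiBiT detection reagent, shaken 10 min at RT, and luminescence read.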

Row | SMILES | DC50 (HiBit-BRM fusion protein) | BRM HiBit Degradation Maximum measured (HiBit-BRM fusion protein) | DC50 [1] | Dmax [1]
1 | CS(=O)(=O)n1ccc(C(=O)N[C@@H](COCc2ccc(C(=O)NCCCCCNc3ccc4c(c3)C(=O)N(C3CCC(=O)NC3=O)C4=O)cc2)C(=O)Nc2nc(-c3ccccc3)cs2)c1 (stereo partly drawn) [Compound 243, N-(5-[[2-(2,6-dioxopiperidin-3-yl)-1,3-dioxoisoindol-5-yl]amino]pentyl)-4-[[(2S)-2-[(1-methanesulfonylpyrrol-3-yl)formamido]-2-[(4-phenyl-1,3-thiazol-2-yl)carbamoyl]ethoxy]methyl]benzamide] | 0.1 to 1 µM | B (‘B’ = Maximum degradation ≥50% and ≤75%) | 0.1 to 1 µM | > 75%
2 | CS(=O)(=O)n1ccc(C(=O)N[C@@H](CCOCCCC(=O)N2CCN(CCCC#Cc3ccc4c(c3)C(=O)N(C3CCC(=O)NC3=O)C4=O)CC2)C(=O)Nc2nc(-c3ccccc3)cs2)c1 (stereo partly drawn) [Compound 263, (2S)-4-[4-(4-[5-[2-(2,6-dioxopiperidin-3-yl)-1,3-dioxoisoindol-5-yl]pent-4-yn-1-yl]piperazin-1-yl)-4-oxobutoxy]-2-[(1-methanesulfonylpyrrol-3-yl)formamido]-N-(4-phenyl-1,3-thiazol-2-yl)butanamide; formic acid] | > 10 µM | C (‘C’ = Maximum degradation <50%) | > 10 µM | < 50%
3 | Cc1ncsc1-c1ccc(CNC(=O)[C@@H]2C[C@@H](O)CN2C(=O)[C@@H](NC(=O)CCCCCCCCCCCCC(=O)NCc2ccc(COC[C@H](NC(=O)c3ccn(S(C)(=O)=O)c3)C(=O)Nc3nc(-c4ccccc4)cs3)cc2)C(C)(C)C)cc1 [Compound 211, N-[(2S)-1-[(2S,4R)-4-hydroxy-2-([[4-(4-methyl-1,3-thiazol-5-yl)phenyl]methyl]carbamoyl)pyrrolidin-1-yl]-3,3-dimethyl-1-oxobutan-2-yl]-N′-[(4-[[(2S)-2-[(1-methanesulfonylpyrrol-3-yl)formamido]-2-[(4-phenyl-1,3-thiazol-2-yl)carbamoyl]ethoxy]methyl]phenyl)methyl]tetradecanediamide] | > 10 µM | C (‘C’ = Maximum degradation <50%) | > 10 µM | < 50%
4 | Cc1ncsc1-c1ccc(CNC(=O)[C@@H]2C[C@@H](O)CN2C(=O)[C@@H](NC(=O)C2CC3(CC(C(=O)NCc4cccc(-c5cccc(-c6csc(NC(=O)CNC(=O)c7ccn(S(C)(=O)=O)c7)n6)c5)c4)C3)C2)C(C)(C)C)cc1 (stereo partly drawn) [Compound 137, N2-[(2S)-1-[(2S,4R)-4-hydroxy-2-([[4-(4-methyl-1,3-thiazol-5-yl)phenyl]methyl]carbamoyl)pyrrolidin-1-yl]-3,3-dimethyl-1-oxobutan-2-yl]-N6-[[3′-(2-[2-[(1-methanesulfonylpyrrol-3-yl)formamido]acetamido]-1,3-thiazol-4-yl)-[1,1′-biphenyl]-3-yl]methyl]spiro[3.3]heptane-2,6-dicarboxamide] | > 10 µM | C (‘C’ = Maximum degradation <50%) | > 10 µM | < 50%
5 | Cc1ncsc1-c1ccc(CNC(=O)[C@@H]2C[C@@H](O)CN2C(=O)[C@@H](NC(=O)COCCOCCOCCNC(=O)c2ccc(COC[C@H](NC(=O)c3ccn(S(C)(=O)=O)c3)C(=O)Nc3nc(-c4ccccc4)cs3)cc2)C(C)(C)C)cc1 [Compound 189, (2S,4R)-4-hydroxy-1-[(2S)-2-[2-[2-(2-[2-[(4-[[(2S)-2-[(1-methanesulfonylpyrrol-3-yl)formamido]-2-[(4-phenyl-1,3-thiazol-2-yl)carbamoyl]ethoxy]methyl]phenyl)formamido]ethoxy]ethoxy)ethoxy]acetamido]-3,3-dimethylbutanoyl]-N-[[4-(4-methyl-1,3-thiazol-5-yl)phenyl]methyl]pyrrolidine-2-carboxamide] | > 10 µM | C (‘C’ = Maximum degradation <50%) | > 10 µM | < 50%
6 | Cc1ncsc1-c1ccc(CNC(=O)[C@@H]2CC(O)CN2C(=O)[C@@H](NC(=O)COCCOCCOCCNC(=O)CN(C)c2cc(-c3cccc(-c4csc(NC(=O)CNC(=O)c5ccn(S(C)(=O)=O)c5)n4)c3)ccn2)C(C)(C)C)cc1 (some centres unmarked) [Compound 89] | > 10 µM | C (‘C’ = Maximum degradation <50%) | > 10 µM | < 50%
7 | Cc1ncsc1-c1ccc(CNC(=O)[C@@H]2C[C@@H](O)CN2C(=O)[C@@H](NC(=O)CCCCCNC(=O)CCCOC[C@H](NC(=O)c2ccn(S(C)(=O)=O)c2)C(=O)Nc2nc(-c3ccccc3)cs2)C(C)(C)C)cc1 [Compound 226, (2S,4R)-4-hydroxy-1-[(2S)-2-(6-[4-[(2S)-2-[(1-methanesulfonylpyrrol-3-yl)formamido]-2-[(4-phenyl-1,3-thiazol-2-yl)carbamoyl]ethoxy]butanamido]hexanamido)-3,3-dimethylbutanoyl]-N-[[4-(4-methyl-1,3-thiazol-5-yl)phenyl]methyl]pyrrolidine-2-carboxamide] | > 10 µM | C (‘C’ = Maximum degradation <50%) | > 10 µM | < 50%
8 | CS(=O)(=O)n1ccc(C(=O)N[C@@H](COCc2ccc(CNC(=O)CCCCCCCCCCNc3cccc4c3C(=O)N(C3CCC(=O)NC3=O)C4=O)cc2)C(=O)Nc2nc(-c3ccccc3)cs2)c1 (stereo partly drawn) [Compound 180, 11-[[2-(2,6-dioxopiperidin-3-yl)-1,3-dioxoisoindol-4-yl]amino]-N-[(4-[[(2S)-2-[(1-methanesulfonylpyrrol-3-yl)formamido]-2-[(4-phenyl-1,3-thiazol-2-yl)carbamoyl]ethoxy]methyl]phenyl)methyl]undecanamide] | 0.1 to 1 µM | B (‘B’ = Maximum degradation ≥50% and ≤75%) | 0.1 to 1 µM | 50 to 75%

The next lines start with the values.

Row | DC50 (HiBit-BRM fusion protein) | BRM HiBit Degradation Maximum measured (HiBit-BRM fusion protein) | DC50 [1] | Dmax [1] | SMILES
9 | 0.1 to 1 µM | A (‘A’ = Maximum degradation >75%) | 0.1 to 1 µM | > 75% | CS(=O)(=O)n1ccc(C(=O)NCC(=O)Nc2nc(-c3cccc(-c4ccnc(N5CCN(C(=O)CCOCCOCCNc6cccc7c6C(=O)N(C6CCC(=O)NC6=O)C7=O)CC5)c4)c3)cs2)c1 (centres unmarked) [Compound 31, N-[2-[[4-[3-[2-[4-[3-[2-[2-[[2-(2,6-dioxo-3-piperidyl)-1,3-dioxo-isoindolin-4-yl]amino]ethoxy]ethoxy]propanoyl]piperazin-1-yl]-4-pyridyl]phenyl]thiazol-2-yl]amino]-2-oxo-ethyl]-1-methylsulfonyl-pyrrole-3-carboxamide]
10 | > 10 µM | C (‘C’ = Maximum degradation <50%) | > 10 µM | < 50% | CN(CC(=O)NCCCCS(=O)(=O)CCCNc1cccc2c1C(=O)N(C1CCC(=O)NC1=O)C2=O)c1cc(-c2cccc(-c3csc(NC(=O)CNC(=O)c4ccn(S(C)(=O)=O)c4)n3)c2)ccn1 (centres unmarked) [Compound 29]
11 | > 10 µM | C (‘C’ = Maximum degradation <50%) | > 10 µM | < 50% | CS(=O)(=O)n1ccc(C(=O)NCC(=O)Nc2nc(C3CCCN(C(=O)CCN4CCN(c5ccc6c(c5)C(=O)N(C5CCC(=O)NC5=O)C6=O)CC4)C3)cs2)c1 (centres unmarked) [Compound 146, N-{4-[1-(3-{4-[2-(2,6-dioxopiperidin-3-yl)-1,3-dioxo-2,3-dihydro-1H-isoindol-5-yl]piperazin-1-yl}propanoyl)piperidin-3-yl]-1,3-thiazol-2-yl}-2-[(1-methanesulfonyl-1H-pyrrol-3-yl)formamido]acetamide formate]
12 | > 10 µM | C (‘C’ = Maximum degradation <50%) | 0.1 to 1 µM | > 75% | CS(=O)(=O)n1ccc(C(=O)NCC(=O)Nc2nc(-c3cccc(-c4ccnc(OCCNC(=O)CCOCCOCCOc5ccc6c(c5)C(=O)N(C5CCC(=O)NC5=O)C6=O)c4)c3)cs2)c1 (centres unmarked) [Compound 38, N-(2-((4-(3-(2-(2-(3-(2-(2-((2-(2,6-dioxopiperidin-3-yl)-1,3-dioxoisoindolin-5-yl)oxy)ethoxy)ethoxy)propanamido)ethoxy)pyridin-4-yl)phenyl)thiazol-2-yl)amino)-2-oxoethyl)-1-(methylsulfonyl)-1H-pyrrole-3-carboxamide]
13 | > 10 µM | C (‘C’ = Maximum degradation <50%) | > 10 µM | < 50% | CN(CCNC(=O)C1(c2cc(-c3cccc(-c4csc(NC(=O)CNC(=O)c5ccn(S(C)(=O)=O)c5)n4)c3)ccn2)CC1)CCOCCOc1cccc2c1C(=O)N(C1CCC(=O)NC1=O)C2=O (centres unmarked) [Compound 112, N-(2-((4-(3-(2-(1-((2-((2-(2-((2-(2,6-dioxopiperidin-3-yl)-1,3-dioxoisoindolin-4-yl)oxy)ethoxy)ethyl)(methyl)amino)-ethyl)carbamoyl)cyclopropyl)-pyridin-4-yl)phenyl)thiazol-2-yl)amino)-2-oxoethyl)-1-(methylsulfonyl)-1H-pyrrole-3-carboxamide]
14 | > 10 µM | C (‘C’ = Maximum degradation <50%) | > 10 µM | < 50% | CS(=O)(=O)n1ccc(C(=O)N[C@@H](COCc2ccc(C(=O)NCCOc3ccc4c(c3)C(=O)N(C3CCC(=O)NC3=O)C4=O)cc2)C(=O)Nc2nc(-c3ccccc3)cs2)c1 (stereo partly drawn) [Compound 200, N-(2-[[2-(2,6-dioxopiperidin-3-yl)-1,3-dioxoisoindol-5-yl]oxy]ethyl)-4-[[(2S)-2-[(1-methanesulfonylpyrrol-3-yl)formamido]-2-[(4-phenyl-1,3-thiazol-2-yl)carbamoyl]ethoxy]methyl]benzamide]
